Assays:
Type in all cases: in vivo
Myzus persicae = Myzus persicae spray test; conditions: in Brassica rapa, foliar, 120 h; for mortality at 100 g/ha: read-out: activity (mortality), application rate 100 g/ha, spray, Chinese cabbage leaf disks, after 5 days; for mortality at 500 g/ha: read-out: activity (mortality), application rate 500 g/ha, spray, Chinese cabbage leaf disks, after 5 days
How it was run: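 Aphid mortality in % was assessed 5 days after spraying; leaf disks of Brassica pekinensis carrying mixed-instar green peach aphids were treated. Spray preparation: active compound in acetone plus dimethylformamide, diluted with emulsifier-containing water (1000 ppm).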

Spodoptera frugiperda = Spodoptera frugiperda spray test; conditions: in Zea mays, 168 h, read-out: activity (mortality)
How it was run: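 Percent kill of fall armyworm caterpillars was assessed 7 days after infesting dried, treated maize leaf sections. Treatment was a spray of compound in acetone/dimethylformamide, diluted with water containing emulsifier at 1000 ppm.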

Diabrotica balteata = Diabrotica balteata spray test; conditions: 168 h, wheat seeds, larvae, after 7 days, read-out: activity (efficacy: 100% means all seedlings have grown up like in the untreated, uninfected control); for pest or weed control at 32 µg/disc, 100 g/ha: application rate 100 g/ha (=32 μg/well); for pest or weed control at 160 µg/disc, 500 g/ha: application rate 500 g/ha (=160 μg/well)
How it was run: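 Efficacy (%) was scored 7 days after spraying, with 100% meaning growth like the untreated, uninfected control and 0% meaning no seedling grew. Spray solutions of compound in acetone/DMF with emulsifier-containing water went onto 1-day-germinated wheat seeds, and each unit was then infested with 10-20 banded cucumber beetle larvae.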

Ctenocephalides felis = Ctenocephalides felis in-vitro contact test, adult cat flea (CTECFE Cont); conditions: application rate 5 μg/cm^2 (=500 g/ha), adult cat fleas, after 48 hours, read-out: activity (efficacy: 100% means all fleas are dead or moribund)
How it was run: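 Efficacy, as percent of fleas dead or moribund, was scored 48 h after adults (5-10 per tube) were placed in glass tubes whose walls carried dried compound at 5 μg/cm^2 (900 ppm solution). Moribund meant failing to climb away from a 45-50° C. hot plate within 5 min.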

[1] = system: Culex quinquefasciatus strain P00; assay: Culex quinquefasciatus test (CULXFA surface treatment & contact assay); conditions: exposure 30 minutes, 24 hours after contact, read-out: efficacy (mortality); for mortality at 20 mg/m2: surface concentration 20 mg/m^2, glazed tile; for mortality at 4 mg/m2: surface concentration 4 mg/m^2, glazed tile
Description: Culex quinquefasciatus Test (CULXFA Surface Treatment & Contact Assay) Solvent: Aceton+2000 ppm rapeseed oil methyl ester (RME)
In order to produce a sufficient, active ingredient containing solution it is necessary to solve the test compound in the solvent-mix (acetone at 2 mg/ml/RME 2 000 ppm). This solution is pipetted onto a glazed tile and after evaporation of the acetone, adult mosquitoes of the species Culex quinquefasciatus strain P00 are placed onto the dried surface. The exposure time is 30 minutes. Mortality in percent (%) is determined 24 hours after contact of the insects to the treated surface. 100% mortality means that all tested insects are dead, whereas 0% means that no insect died.

Rhipicephalus microplus [2] = assay: Rhipicephalus (Boophilus) microplus injection test (BOOPMI Inj); conditions: 168 h, injection into adult engorged female ticks, egg deposition after 7 days, read-out: activity (efficacy: 100% means all eggs are infertile); for pest or weed control at 0.004 mg: application rate 4 μg/tick; for pest or weed control at 0.02 mg: application rate 20 μg/tick
How it was run: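 Compound in DMSO, 1 μL, injected abdominally into five adult engorged females, which were then held in a climate chamber. Read-out is egg fertility, scored from deposition at 7 days, with unclear eggs followed to hatching (~42 days); 0% means all eggs fertile, 100% all infertile.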

Rhipicephalus microplus [3] = assay: Rhipicephalus (Boophilus) microplus in-vitro contact test, larval cattle tick, strain Parkhurst (BOOPMI Cont); conditions: application rate 5 μg/cm^2 (=500 g/ha), tick larvae, after 48 hours, read-out: activity (efficacy: 100% means all larvae are dead or moribund)
How it was run: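 After 48 h at 27° C. and 85% humidity, percent dead or moribund larvae was scored from negative geotactic behaviour. Larvae (20-50, Parkhurst strain, synthetic pyrethroid-resistant) were exposed in tubes coated with compound from acetone, 900 ppm corresponding to 5 μg/cm^2.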

Row | Structure (SMILES) | mortality at 100 g/ha (Myzus persicae) [%] | mortality at 500 g/ha (Myzus persicae) [%] | mortality at 100 g/ha (Spodoptera frugiperda) [%] | mortality at 500 g/ha (Spodoptera frugiperda) [%] | pest or weed control at 32 µg/disc, 100 g/ha (Diabrotica balteata) [%] | pest or weed control at 160 µg/disc, 500 g/ha (Diabrotica balteata) [%] | pest or weed control at 5 µg/cm2 (Ctenocephalides felis) [%] | mortality at 20 mg/m2 [1] [%] | pest or weed control at 0.004 mg (Rhipicephalus microplus [2]) [%] | pest or weed control at 0.02 mg (Rhipicephalus microplus [2]) [%] | pest or weed control at 5 µg/cm2 (Rhipicephalus microplus [3]) [%] | mortality at 4 mg/m2 [1] [%]
1 | CCN(C(=O)c1ccc(-n2ncnc2[C@H](C)NC(=O)c2cc(Cl)cc(C(F)(F)F)c2)nc1)C1CC1 [II-31] | 100 | 100 | 100 | 100 | 100 | 100 | 100 | 80 to 100 | 100 | 100 | 100 | –
2 | C[C@H](NC(=O)c1cc(Cl)cc(C(F)(F)F)c1)c1ncnn1-c1cc(-n2cncn2)ccn1 [II-43] | – | – | 100 | 100 | 100 | 100 | 100 | – | 100 | 100 | 100 | 80 to 100
3 | Cc1nc([C@H](C)NC(=O)c2cc(Cl)cc(C(F)(F)F)c2)n(-c2cc(C#N)ccn2)n1 [II-18] | – | – | 100 | 100 | 100 | 100 | 100 | 80 to 100 | 100 | 100 | 100 | –
4 | C[C@H](NC(=O)c1cc(C(F)(F)F)cc(C(F)(F)F)c1)c1ncnn1-c1ccc(C(=O)N(C)C2CC2)cn1 [II-38, 6-(5-{(1S)-1-[3,5-bis(trifluoromethyl)benzamido]ethyl}-1H-1,2,4-triazol-1-yl)-N-cyclopropyl-N-methylnicotinamide] | 100 | 100 | 100 | 100 | 100 | 100 | 100 | 80 to 100 | 100 | 100 | 100 | –
5 | Cc1nc([C@H](C)NC(=O)c2cc(C(F)(F)F)cc(C(F)(F)F)c2)n(-c2cc(C#N)ccn2)n1 [II-19] | – | – | 100 | 100 | 100 | 100 | 100 | 80 to 100 | 100 | 100 | 100 | –
6 | C[C@H](NC(=O)c1cc(Cl)cc(C(F)(F)F)c1)c1ncnn1-c1cc(N)ccn1 [II-28] | – | – | – | 100 | 100 | 100 | 100 | 80 to 100 | 100 | 100 | 90 | 80 to 100
7 | CC(=O)Nc1ccnc(-n2ncnc2[C@H](C)NC(=O)c2cc(Cl)cc(C(F)(F)F)c2)c1 [II-36] | – | 90 | 100 | 100 | – | – | 80 | 80 to 100 | 100 | 100 | 100 | 80 to 100
8 | C[C@H](NC(=O)c1cc(Cl)cc(OC(F)(F)F)c1)c1ncnn1-c1ncc(OC(F)F)cn1 [II-30] | – | – | 100 | 100 | 100 | 100 | 100 | – | 100 | 100 | 100 | 80 to 100

From patent publication US20220274947A1, “NOVEL HETEROARYL-TRIAZOLE COMPOUNDS AS PESTICIDES” (Bayer Aktiengesellschaft, priority 2019, published 2022)
